The text below walks through data of patent US20240349718A1, “COMPOSITION” (priority 2021, published 2024).

Read-outs that look alike come from different tables or passages of the source.

The test is described as follows: Lewis acidity: reaction rate constant of CoTPP and oxygen in the presence of a Lewis acid. Format: physicochemical. How it is done:
Acetonitrile (MeCN) containing cobalt tetraphenylporphyrin (CoTPP), saturated O2, and a substance to be measured for the Lewis acidity (which is, for example, a cation of metal or the like and is represented by M^n+ in the following reaction scheme (A)) in the following reaction scheme (A) is measured for a change in an ultraviolet-visible absorption spectrum at room temperature. From the obtained reaction rate constant (kcat), the ΔE value (eV) as an index of the Lewis acidity can be calculated. […] The Lewis acidity of an organic compound can also be estimated from an energy level of the lowest unoccupied molecular orbital (LUMO) calculated by quantum chemical calculation.
Examples of the reaction rate constant of CoTPP and oxygen in the presence of a Lewis acid, which is an index of the Lewis acidity measured (calculated) by the above measurement method, are shown below. In the following Table 1, numerical values represented by “kcat, M^−2s^−1” are CoTPP and oxygen in the presence of a Lewis acid. The 5 numerical value represented by “LUMO, eV” is an energy level of LUMO.

Setting [1] is: CoTPP and oxygen in MeCN, room temperature.

For the compound `CCCC[N+](CCCC)(CCCC)CCCC.F[P-](F)(F)(F)(F)F` [Tetrabutylammonium hexafluorophosphate], the kcat is reported as over 0.1 M^−2s^−1.
On to Benzethonium chloride, for which the kcat under setting [1] is recorded as 0.24 M^−2s^−1.
Regarding Benzalkonium chloride, under setting [1], the kcat turned out to be 0.18 M^−2s^−1.
